Test results published in article PMC4559964, “Cytotoxicity of selected Cameroonian medicinal plants and Nauclea pobeguinii towards multi-factorial drug-resistant cancer cells” (BMC Complementary and Alternative Medicine, 2015).
Like-named read-outs stand apart in the source and are kept apart here.

Legend:
[1] = system: multidrug-resistant leukemia CEM/ADR5000 cells; assay: Resazurin reduction assay, cytotoxicity on CEM/ADR5000; assay type: cell-based; settings: for IC50: Homo sapiens, read-out: IC50 values of compounds / doxorubicin; for degree of resistance: ratio IC50 CEM/ADR5000 / IC50 CCRF-CEM
Protocol: (§1) The cell lines used in the present work, their origins and their treatments were previously reported. They include drug-sensitive leukemia CCRF-CEM cells, its multidrug-resistant subline CEM/ADR5000 cells, breast cancer MDA-MB-231-pcDNA3 cells, its resistant subline MDA-MB-231-BCRP clone 23) cells, colon HCT116 (p53^+/+) cancer cells, its knockout clones HCT116 (p53^−/−), glioblastoma U87MG cells, its resistant subline U87MG.ΔEGFR cells and normal AML12 hepatocytes. […] Breast cancer cells, transduced with control vector (MDA-MB-231-pcDNA3) or with cDNA for the breast cancer resistance protein BCRP (MDA-MB-231-BCRP clone 23), were maintained under standard conditions as described above for CCRF-CEM cells. Human wild-type HCT116 (p53^+/+) colon cancer cells as well as knockout clones HCT116 (p53^−/−) derived by homologous recombination were a generous gift from Dr. B. Vogelstein and H. Hermeking (Howard Hughes Medical Institute, Baltimore, MD). Human glioblastoma multiforme U87MG cells (non-transduced) and U87MG cell line transduced with an expression vector harboring an epidermal growth factor receptor (EGFR) gene with a genomic deletion of exons 2 through 7 (U87MG.ΔEGFR) were kindly provided by Dr. W. K. Cavenee (Ludwig Institute for Cancer Research, San Diego, CA). MDA-MB-231-BCRP, U87MG.ΔEGFR and HCT116 (p53^−/−) were maintained in DMEM medium containing 10 % FBS (Invitrogen) and 1 % penicillin (100 U/mL)-streptomycin (100 μg/mL) (Invitrogen) and were continuously treated with 800 ng/mL and 400 μg/mL geneticin, respectively. Normal AML12 heptocytes were obtained from the American Type Culture Collection (ATCC, USA). The above medium without geneticin was used to maintain MDA-MB-231, U87MG, HCT116 (p53^+/+) and AML12 cell lines. The cells were passaged twice weekly. All experiments were performed with cells in the logarithmic growth phase.
(§2) The cytotoxicity of the tested samples was performed by resazurin reduction assay as we previously described. Briefly, adherent cells at 1 × 10^4 cells were allowed to attach overnight and were then treated with different concentrations of the studied samples. For suspension cells, aliquots of 2 × 10^4 cells per well were seeded in 96-well-plates in a final volume of 200 μL. […] After 72 h incubation and resazurin (Sigma-Aldrich, Schnelldorf, Germany) staining, fluorescence was measured on an Infinite M2000 Pro™ plate reader (Tecan, Crailsheim, Germany) using an excitation wavelength of 544 nm and an emission wavelength of 590 nm. Each assay was done at least two times, with six replicates each. IC50 values represent the sample concentration required to inhibit 50 % of cell proliferation and were calculated from a calibration curve by linear regression using Microsoft Excel.

normal AML12 hepatocytes = assay: Resazurin reduction assay, cytotoxicity on normal AML12 hepatocytes; assay type: cell-based; settings: Mus musculus, read-out: IC50 values of compounds / doxorubicin
Protocol: as §1, §2

[2] = system: HCT116 (p53+/+) colon cancer cells; assay: Resazurin reduction assay, cytotoxicity on HCT116 (p53+/+); assay type: cell-based; settings: Homo sapiens, read-out: IC50 values of compounds / doxorubicin
Protocol: as §1, §2

[3] = system: MDA-MB-231-BCRP clone 23 cells; assay: Resazurin reduction assay, cytotoxicity on MDA-MB231/BCRP; assay type: cell-based; settings: for IC50: MDA-MB-231/BCRP, 72 h, mean ± SD; for degree of resistance: ratio IC50 MDA-MB231/BCRP / IC50 MDA-MB231
Protocol: (§3) The cell lines used in the present work, their origins and their treatments were previously reported. […] Human wild-type HCT116 (p53^+/+) colon cancer cells as well as knockout clones HCT116 (p53^-/-) derived by homologous recombination were a generous gift from Dr. B. […] (Howard Hughes Medical Institute, Baltimore, MD). Human glioblastoma multiforme U87MG cells (non-transduced) and U87MG cell line transduced with an expression vector harboring an epidermal growth factor receptor (EGFR) gene with a genomic deletion of exons 2 through 7 (U87MG.ΔEGFR) were kindly provided by Dr. W. K. Cavenee (Ludwig Institute for Cancer Research, San Diego, CA). MDA-MB-231-BCRP, U87MG.ΔEGFR and HCT116 (p53^-/-) were maintained in DMEM medium containing 10 % FBS (Invitrogen) and 1 % penicillin (100 U/mL)-streptomycin (100 μg/mL) (Invitrogen) and were continuously treated with 800 ng/mL and 400 μg/mL geneticin, respectively. Normal AML12 heptocytes were obtained from the American Type Culture Collection (ATCC, USA). The above medium without geneticin was used to maintain MDA-MB-231, U87MG, HCT116 (p53^+/+) and AML12 cell lines. The cells were passaged twice weekly. All experiments were performed with cells in the logarithmic growth phase. […] Briefly, adherent cells at 1 × 10^4 cells were allowed to attach overnight and were then treated with different concentrations of the studied samples. For suspension cells, aliquots of 2 × 10^4 cells per well were seeded in 96-well-plates in a final volume of 200 μL. […] After 72 h incubation and resazurin (Sigma-Aldrich, Schnelldorf, Germany) staining, fluorescence was measured on an Infinite […]TM plate reader (Tecan, Crailsheim, Germany) using an excitation wavelength of 544 nm and an emission wavelength of 590 nm. Each assay was done at least two times, with six replicates each.

[4] = system: drug-sensitive leukemia CCRF-CEM cells; assay: Resazurin reduction assay, cytotoxicity on CCRF-CEM; assay type: cell-based; settings: Homo sapiens, 72 h, read-out: IC50 values of compounds / doxorubicin
Protocol: as §1, §2

U87MG.ΔEGFR cells = assay: Resazurin reduction assay, cytotoxicity on U87MG.ΔEGFR; assay type: cell-based, human; settings: for IC50: Homo sapiens, 72 h, read-out: IC50 values of compounds / doxorubicin; for degree of resistance: ratio IC50 U87MG.ΔEGFR / IC50 U87MG
Protocol: as §1, §2

[5] = system: breast cancer MDA-MB-231-pcDNA3 cells; assay: Resazurin reduction assay, cytotoxicity on MDA-MB231; assay type: cell-based; settings: read-out: IC50 values of compounds / doxorubicin
Protocol: as §1, §2

[6] = system: eight tested cancer cell lines; assay: Resazurin reduction assay, summary over the panel of tested cell lines; assay type: cell-based
Protocol: as §1, §2

[7] = system: HCT116 (p53−/−) colon cancer cells; assay: Resazurin reduction assay, cytotoxicity on HCT116 (p53-/-); assay type: cell-based, human; settings: for IC50: Homo sapiens, read-out: IC50 values of compounds / doxorubicin; for degree of resistance: ratio IC50 HCT116 (p53−/−) / IC50 HCT116 (p53+/+)
Protocol: as §3

[8] = system: glioblastoma multiforme U87MG cells; assay: Resazurin reduction assay, cytotoxicity on U87MG; assay type: cell-based; settings: Homo sapiens, U-87 MG, 72 h, read-out: IC50 values of compounds / doxorubicin
Protocol: as §1, §2

leukemia CCRF-CEM cells = assay: Preliminary cytotoxicity study at a single concentration on CCRF-CEM; assay type: cell-based; settings: doxorubicin 10 μM, positive control
Protocol: Briefly, adherent cells at 1 × 10^4 cells were allowed to attach overnight and were then treated with different concentrations of the studied samples. For suspension cells, aliquots of 2 × 10^4 cells per well were seeded in 96-well-plates in a final volume of 200 μL. […] Each assay was done at least two times, with six replicates each.

[9] = HCT-116, HCT116 (p53+/+), 72 h, mean ± SD
[10] = MDA-MB231/BCRP, read-out: IC50 values of compounds / doxorubicin
[11] = Homo sapiens, MDA-MB-231, 72 h, MDA-MB231, 72 h, mean ± SD
[12] = all eight tested cancer cell lines, read-out: IC50 over all tested cell lines
[13] = HCT-116, HCT116 (p53−/−), 72 h, mean ± SD
[14] = read-out: IC50 values of compounds / doxorubicin, MDA-MB231/BCRP

| Structure (SMILES) | IC50 ([1]; CEM/ADR5000, 72 h, mean ± SD) | IC50 (normal AML12 hepatocytes; AML12 normal hepatocytes, 72 h) | IC50 [2, 9] | IC50 [3, 10] | IC50 ([4]; mean ± SD) | IC50 (U87MG.ΔEGFR cells; U87MG.ΔEGFR, mean ± SD) | IC50 [5, 11] | IC50 [6, 12] | IC50 [7, 13] | IC50 ([8]; U87MG, mean ± SD) | degree of resistance [1] | degree of resistance [3] | degree of resistance (U87MG.ΔEGFR cells) | degree of resistance [7] | other results |
| --- | --- | --- | --- | --- | --- | --- | --- | --- | --- | --- | --- | --- | --- | --- | --- |
| CC(=O)O[C@H]1CC[C@]2(C)[C@H]3C(=O)C=C4[C@@H]5[C@@H](C)[C@H](C)CC[C@]5(C)CC[C@@]4(C)[C@]3(C)CC[C@H]2C1(C)C [Compound 1, 3-acetoxy-11-oxo-urs-12-ene] | > 82.9 µM | > 82.9 µM | > 82.9 µM | > 82.9 µM | > 82.9 µM | > 82.9 µM | > 82.9 µM | > 82.9 µM | > 82.9 µM | > 82.9 µM | – | – | – | – | – |
| OC[C@H]1O[C@@H](Oc2cc(O)cc(/C=C/c3ccc(O)cc3)c2)[C@H](O)[C@@H](O)[C@@H]1O [Compound 5, resveratrol β-D-glucopyranoside] | 39.9 ± 2.91 µM | > 103 µM | 63.8 ± 4.61 µM | – | 25.1 ± 2.48 µM | 47.6 ± 3.29 µM | 97.6 ± 7.6 µM | < 100 µM | 47 ± 4.94 µM | 55.6 ± 3.73 µM | 1.59 | 0.98 | 0.86 | 0.74 | IC50 [3, 14]: 95.6 ± 8.17 µM |
| C=C[C@H]1[C@H](O[C@@H]2O[C@H](CO)[C@@H](O)[C@H](O)[C@H]2O)OC=C2C(=O)N3CCc4c([nH]c5ccccc45)[C@@H]3C[C@H]21 [Compound 6, strictosamide] | – | – | – | 78.3 ± 6.22 µM | – | – | – | – | – | – | > 1.04 | < 0.97 | – | – | IC50 ([1]; ADR5000, 72 h): > 80.3 µM; IC50 (normal AML12 hepatocytes; AML12, 72 h): > 80.3 µM; IC50 ([2]; HCT-116, 72 h): > 80.3 µM; IC50 [4]: 77.1 ± 5.87 µM; IC50 (U87MG.ΔEGFR cells): > 80.3 µM; IC50 ([5]; Homo sapiens, MDA-MB-231, 72 h): > 80.3 µM; IC50 ([6]; read-out: IC50): < 80.3 µM; IC50 ([7]; HCT-116, 72 h): > 80.3 µM; IC50 [8]: > 80.3 µM |
| O=C(O)/C=C/c1ccc(O)cc1 [Compound 2, p-coumaric acid] | > 244 µM | > 244 µM | > 244 µM | – | > 244 µM | > 244 µM | > 244 µM | > 244 µM | > 244 µM | > 244 µM | – | – | – | – | IC50 [3, 14]: > 244 µM |
| COc1cccc2c1C(=O)c1c(O)c3c(c(O)c1C2=O)C[C@@](O)(C(=O)CO)C[C@@H]3O[C@H]1C[C@H](N)[C@H](O)[C@H](C)O1 [doxorubicin, Doxorubicin, reference compound] | – | > 73.6 µM | – | – | 0.2 ± 0.06 µM | 6.11 ± 0.57 µM | – | – | – | 1.06 ± 0.15 µM | 975.60 | 7.12 | 5.76 | 2.88 | Growth percentage of CCRF-CEM leukemia cells (leukemia CCRF-CEM cells): 13.6%; IC50 ([2]; HCT-116, 72 h): 1.41 ± 0.29 µM; IC50 ([5]; Homo sapiens, MDA-MB-231, MDA-MB231, 72 h, mean ± SD): 1.1 ± 0.28 µM; IC50 ([7]; HCT-116, 72 h): 4.06 ± 0.07 µM |
| Oc1ccc(/C=C/c2cc(O)cc(O)c2)cc1 [Compound 4, resveratrol] | 57.4 ± 3.67 µM | > 175 µM | 73.7 ± 5.67 µM | – | 28.2 ± 1.32 µM | 28.4 ± 2.06 µM | < 23 µM | – | > 175 µM | 76.6 ± 4.92 µM | 2.04 | – | 0.37 | > 2.38 | IC50 ([5]; MDA-MB231, 72 h, mean ± SD): 19.9 ± 1.45 µM; IC50 ([6]; seven out of eight cell lines, read-out: IC50): < 175 µM |
| COC(=O)CC(O)(CC(=O)OC)C(=O)OC [Compound 3, citric acid trimethyl ester] | > 171 µM | > 171 µM | > 171 µM | > 171 µM | > 171 µM | > 171 µM | > 171 µM | > 171 µM | > 171 µM | > 171 µM | – | – | – | – | – |
